We go through 7 molecules from US9024022B2, “Substrates of O6-alkylguanine-DNA alkyltransferase and mutants thereof” (Cis Bio International, priority 2008, dated 2015).

In experiment [1] the target is T1, CLIP-tag enzyme (CLIPtag-mGluR2 fusion protein) (Homo sapiens, UniProt P16455, A121V/A127T/A154D/C150Q/C62A/G131N/G132T/G153S/K125A/K32I/L33F/M134L/M60I/N157P/Q115S/Q116H/R128A/R135D/S151G/S152D/S159L/Y114E).
T1 construct: The co-expressed SNAPtag-mGluR2 is a separate chain that carries the FRET partner dye
T1 sequence (P16455 1-207 K32I/L33F/M60I/C62A/Y114E/Q115S/Q116H/A121V/K125A/A127T/R128A/G131N/G132T/M134L/R135D/C150Q/S151G/S152D/G153S/A154D/N157P/S159L): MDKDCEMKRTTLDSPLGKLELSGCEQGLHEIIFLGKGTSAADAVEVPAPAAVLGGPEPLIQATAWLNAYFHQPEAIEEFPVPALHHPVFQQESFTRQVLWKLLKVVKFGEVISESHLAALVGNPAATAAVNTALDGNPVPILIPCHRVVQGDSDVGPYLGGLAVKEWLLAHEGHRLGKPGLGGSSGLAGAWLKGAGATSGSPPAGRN
The experiment is described as follows: Cell model with CLIPtag-mGluR2 and SNAPtag-mGluR2 cotransfection, TR-FRET at 665 nm. To be noted: cells incubated with 300 nM of BG-methylbenzamide-Tb(KR); TR-FRET; read-out: half saturation concentration of CLIPtag. In kind it is cell-based. The method, then: The cell model used in this example is different from that used in the preceding examples:
The cells are either cotransfected with a plasmid coding for the fusion protein CLIPtag-mGluR2 and another plasmid coding for the fusion protein SNAPtag-mGluR2, or transfected with a single plasmid coding for the fusion protein SNAPtag-mGluR2.
Each cell population is incubated in the presence of 300 nM of BG-methylbenzamide-DY647 and increasing concentrations of reference substrates (BC-Tb(KR)) or of a substrate according to the invention (BC-methylbenzamide-Tb(KR)). The fluorescence is measured at 665 nm in TR-FRET mode on a Rubystar machine and the signal measured is representative of a transfer of energy following the dimerization of two monomers of mGluR2 labeled respectively by DY647 and Tb(KR).
This example is carried out in the same way as example 7 but the cells are incubated in the presence of 300 nM of BG-methylbenzamide-Tb(KR) and increasing concentrations of reference substrate (BC-DY647) or of substrate according to the invention (BC-methylbenzamide-DY647), the formulae of which are below: […]
Background: Time-resolved FRET reads energy transfer from a long-lived donor to a nearby acceptor.

Experiment [2] has as its target T2, SNAP-tag-ST26 enzyme (SNAP-tag-mGluR2 fusion protein) (Homo sapiens, UniProt P16455, A127T/C150S/C62A/G131K/G132T/K125A/M134L/N157G/R128A/R135S/S159E).
T2 construct: expressed in transfected cells; host or cells: COS 7 cells, transient electroporation
T2 sequence (P16455 1-182 C62A/K125A/A127T/R128A/G131K/G132T/M134L/R135S/C150S/N157G/S159E limits assumed): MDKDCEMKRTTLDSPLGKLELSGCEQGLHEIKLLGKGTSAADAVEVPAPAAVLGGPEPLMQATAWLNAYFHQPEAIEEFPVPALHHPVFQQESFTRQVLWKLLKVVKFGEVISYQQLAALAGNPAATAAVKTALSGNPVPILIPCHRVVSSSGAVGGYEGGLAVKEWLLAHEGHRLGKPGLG
Briefly: Enzymatic reactivity test in a cell model, SNAP-tag-mGluR2 expressed by COS 7 cells. In kind it is cell-based. To be noted: living COS 7 cells, labeling 1 h at 37° C., read-out: half saturation concentration of the enzyme. The method, then:
(§1) This procedure makes it possible to test the reactivity of substrates according to the invention with an AGT expressed by COS 7 cells in the form of a fusion protein with the type 2 glutamate transmembrane receptor (mGluR2).
(§2) Various mutants of AGT were analyzed in this study: SNAP-tag-ST26 or CLIP-tag from Covalys or the N-AGT mutant described by Gronemeyer et al. (Protein Engineering, Design & Selection, Vol. 19, No. 7, pp. 309-316, 2006).
• SNAP-tag-mGluR2 plasmid, prepared from the pSET-26b plasmid according to the protocol of the commercial kit (SNAP express pSTE7-26b kit, Covalys Biosciences) • Invitrogen pcdna3.1 plasmid. This plasmid is used as a negative control; the cells transfected with this plasmid are denoted “mock” and make it possible to determine the level of non-specific labeling. Protocol:
(§3) The transient transfection of the cells is carried out by electroporation using a Biorad electroporator: 10 million cells are transfected by 1 μg SNAP-tag-mGluR2+3 μg pcdna3.1 in a final volume of 300 μl. The electroporation parameters are: 280 V & 1000 μF.
(§4) The cells are then seeded at 150 000 cells per well in Greiner plates (opaque black bottom) previously incubated with polyornithine for 30 minutes at 37° C.
(§5) The cells are cultured in the DMEM+Phenol Red+10% FCS+penicillin/streptomycin+non-essential amino acids medium at 37° C. and 5% CO2. After 24 h of expression, a first washing operation is carried out with 100 μl of this same medium.
(§6) The labeling of the AGT-mGluR2 fusion protein takes place in 100 μl of complete medium with increasing concentrations of BG-fluorophore or BG-L1-A-L2-fluorophore according to the invention for 1 h at 37° C. Before the reading, 4 washing operations are carried out with 100 μl of Tris-Krebs.
(§7) For the substrates bearing fluorophores ATTO647 (example 2), DY647 (examples 1 and 5) and fluorescein-5-EX (example 3), the reading is carried out in 100 μl of Tris-Krebs in direct fluorescence at 682 nm on a Rubystar machine, and at 520 nm for those bearing fluorescein-5-EX (example 3).
(§8) For the substrates bearing the terbium KR complex (examples 4 and 6), the reading is taken in 100 μl of Tris-Krebs in time-resolved fluorescence at 620 nm on a Rubystar machine.

The target in experiment [3] is T3, N-AGT enzyme (AGT-mGluR2 fusion protein) (Homo sapiens, UniProt P16455).
T3 construct: fused on or other part: type 2 metabotropic glutamate receptor (mGluR2)
Briefly: Enzymatic reactivity test in a cell model, N-AGT mutant. In kind it is cell-based. To be noted: for EC50: living cells, N-AGT mutant, labeling 1 h at 37° C., read-out: half saturation concentration of the enzyme. The procedure:
as §1, §2, §3, §4, §5, §6, §7, §8
In order to validate the effect of the substrate according to the invention on another mutant of AGT, a characterization of extracellular labeling with the NAGT mutant was carried out.

For experiment [4], the target named is T4, SNAP-tag enzyme (GST-SNAP-tag-FKBP fusion protein) (Homo sapiens, UniProt P16455, A127T/C150S/C62A/G131K/G132T/K125A/M134L/N157G/R128A/R135S/S159E).
T4 construct: GST (N)
T4 sequence (P16455 1-182 C62A/K125A/A127T/R128A/G131K/G132T/M134L/R135S/C150S/N157G/S159E limits assumed): T2 sequence (P16455 1-182 C62A/K125A/A127T/R128A/G131K/G132T/M134L/R135S/C150S/N157G/S159E limits assumed)
Briefly: Enzymatic reactivity test in an in vitro model (TR-FRET labeling of GST-SNAPtag-FKBP recombinant protein). Format: biochemical. Particulars: for reactivity of the substrate with the SNAP-tag enzyme: in vitro protein labeling, compared with reference substrate; for percentage of labeling of the SNAP-tag enzyme compared with the reference substrate: in vitro, after 30 min of incubation, regardless of the concentration of substrate. From the text:
The test of reactivity of the substrates according to the invention with the SNAP-tag enzyme is based on an in vitro test of labeling a recombinant protein.
In this case, use is made of the FRB and FKBP proteins that interact in the presence of rapamycin.
The FKBP protein is labeled by a first fluorophore via SNAP-tag technology: for this, a GST-SNAPtag-FKBP fusion protein is produced from the pSET7-26b plasmid according to the protocol of the commercial kit (SNAP express pSET7-26b kit, Covalys Biosciences AG, Witterswil/Switzerland). This fusion protein is then brought into contact with the first fluorophore conjugated to a reference BG derivative or to a BG derivative according to the invention.
The FRB protein is itself coupled via conventional conjugation techniques with a donor fluorescent compound (europium TBP cryptate (KTBP), Cisbio Bioassay) or acceptor fluorescent compound (DY647, Dyomics) depending on the case, following the protocols provided with these products.
The table below explains the nature of the pairs of fluorophores in each of the following examples 1 to 4:
In each example, 2 nmol of FRB recombinant protein labeled with a europium cryptate or DY647 (2nd fluorophore) are co-incubated at ambient temperature with 2 nmol of GST-SNAP-tag-FKBP recombinant protein and increasing concentrations of BG labeled by the first fluorophore (BG-fluorophore of the prior art or BG-L1-A-L2-fluorophore according to the invention).
The fluorescence readings are taken at 620 nm and at 665 nm on a RubyStar machine (BMG laboratory) after an excitation at 337 nm. The readings are carried out before and after induction of the FRB/FKBP protein interaction by 100 nM of rapamycin. This interaction is expressed by the emission of a TR-FRET signal. Since the SNAP-tag enzyme can only attach to a single fluorescent group, the increase in the TR-FRET signal is directly proportional to the percentage of labeled proteins in the reaction medium. This in vitro model makes it possible to establish enzymatic labeling kinetics as a function of the excess of substrate involved in the reaction.
The results are indicated either as d665 or as % labeling according to the following formulae: d 665=(signal at 665 nm with the GST-ST-FKBP protein)−(signal at 665 nm without the GST-ST-FKBP protein).
The percentage of labeling is obtained by comparison with the signal corresponding to the maximum labeling that is obtained after 18 hours of incubation. % labeling=(d665 at t measured/d665 18 h of incubation)×100. Procedure of the Enzymatic Reactivity Test in a Cell Model

T3 sequence (P16455 whole entry, looked up, the tested form may be a part): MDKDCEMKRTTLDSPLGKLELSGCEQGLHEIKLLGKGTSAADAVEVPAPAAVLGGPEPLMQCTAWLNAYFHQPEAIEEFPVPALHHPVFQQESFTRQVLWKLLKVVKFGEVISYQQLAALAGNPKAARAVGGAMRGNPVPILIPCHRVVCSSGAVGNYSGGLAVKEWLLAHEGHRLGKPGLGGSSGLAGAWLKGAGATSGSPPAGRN

Consider `CCN1/C(=C/C=C/C=C/C2=[N+](CC)c3ccc(S(=O)(=O)[O-])cc3C2(C)C)C(C)(CCCC(=O)NCc2ccc(COc3nccc(N)n3)cc2)c2cc(S(=O)(=O)O)ccc21` (centres unmarked) [BC-DY647, benzylcytosine-DY647, reference compound], for which, in experiment [1], the EC50 was determined as 1570 nM.

Take `CCN1/C(=C/C=C/C=C/C2=[N+](CC)c3ccc(S(=O)(=O)[O-])cc3C2(C)C)C(C)(CCCC(=O)NCc2ccc(COc3nc(N)nc4[nH]cnc34)cc2)c2cc(S(=O)(=O)O)ccc21` (centres unmarked) [BG-DY647, benzylguanine-Dy647, reference compound]: the figures for the EC50 in experiment [2] and in experiment [3] were 168 nM and 43 nM, respectively.

For `Nc1nc(OCc2ccc(CNC(=O)CCSCC(=O)Nc3ccc(-c4c5ccc(=O)cc-5oc5cc(O)ccc45)c(C(=O)O)c3)cc2)c2nc[nH]c2n1` [BG-fluorescein-5-EX, benzylguanine-fluorescein-5-EX, reference compound], the “reactivity of the substrate with the SNAP-tag enzyme” value in experiment [4] was “adequate”.

`CCN1c2cc3c(cc2C(C)=CC1(C)C)C(c1ccc(C(=O)N(C)CCCC(=O)NCc2ccc(C(=O)NCc4ccc(COc5nc(N)nc6[nH]cnc56)cc4)cc2)cc1)=c1cc2c(cc1O3)=[N+](CC)C(C)(C)C=C2C` [BG-methylbenzamide-ATTO647N, ATTO647N-methylbenzamide-BG]: the “percentage of labeling of the SNAP-tag enzyme compared with the reference substrate” value in experiment [4] is recorded as “much better”.

With `Nc1ccc2cc3ccc(N)cc3[n+](CCCC(=O)NCc3ccc(C(=O)NCc4ccc(COc5cc(N)nc6[nH]cnc56)cc4)cc3)c2c1` [BG-methylbenzamide-Atto465, Atto465-methylbenzamide-BG], in experiment [2], the EC50 was 213 nM.

`CCN1/C(=C/C=C/C=C/C2=[N+](CC)c3ccc(S(=O)(=O)[O-])cc3C2(C)C)C(C)(CCCC(=O)NCc2ccc(C(=O)NCc3ccc(COc4nc(N)nc5[nH]cnc45)cc3)cc2)c2cc(S(=O)(=O)O)ccc21` (centres unmarked) [BG-methylbenzamide-DY647, Dy647-methylbenzamide-BG]: in experiment [4], the “percentage of labeling of the SNAP-tag enzyme compared with the reference substrate” value was “greatly improved”. In addition, the values for the EC50 in experiment [2] and in experiment [3] were 91.3 nM and 22.3 nM, respectively. Also, in experiment [3] (N-AGT enzyme, versus BG-DY647), the “half saturation concentration, times lower relative to the reference substrate” value is given as “around 2 times”.

For `Nc1nc(OCc2ccc(CNC(=O)c3ccc(CNC(=O)CCSCC(=O)Nc4ccc(-c5c6ccc(=O)cc-6oc6cc(O)ccc56)c(C(=O)O)c4)cc3)cc2)c2nc[nH]c2n1` [BG-methylbenzamide-fluorescein-5-EX, fluorescein-5-EX-benzylamide-BG], the “reactivity of the substrate with the SNAP-tag enzyme” value in experiment [4] is “better than that of the reference substrate”.
